# Assay results as given in US10385378B2, “Method for determining toxic substances by plant gel agar coagulation” (priority 2017, dated 2019).
# Like-named read-outs stand apart in the source and are kept apart here.
# Columns and labels:
# [1] = test system: B16-F10 cells
# Protocol: (§1) The MTT reagent was reduced to the purple crystalline formazan by the mitochondrial enzyme of surviving cells, and the crystals were dissolved by DMSO (Dimethyl Sulfoxide).
# (§2) Subsequently, the absorbance of OD570 nm was measured. The color depth was proportional with the number of viable cells. […] After 3-5 hours, the cells were plated on 96-well plates and added to the sample (100 μl per well). After incubation for 24 hours, the MTT reagent (MTT 5 mg/ml dissolved in PBS) was reacted for 1 to 2 hours. The culture medium in the 96-well dish was blotted with the MTT reagent and dissolved in 100 μl of DMSO. The absorbance values were read at a wavelength of 570 nm with an ELISA kit.
# [2] = test system: skin 3T3 cells
# Protocol: as §1, §2
# [3] = in vitro; details: mouse
# Protocol: as §1, §2
# [4] = Cell viability analysis (MTT) cytotoxicity, skin 3T3 cells; details: mouse, skin 3T3 cells (ATCC CCL-92)
# Protocol: as §1, §2
# [5] = Cell viability analysis (MTT) cytotoxicity, B16-F10 cells; details: mouse, B16-F10 cells (ATCC CRL-6475)
# Protocol: as §1, §2
# [6] = Agar coagulation time with cosmetic materials (3% agar); details: for Agar coagulation time with increase of sample concentration vs control group: FIGS. 2-6, mean±SEM, N=3
# Protocol: The agar gel solution is dissolved to form a clear solution by changing the temperature in the range from a room temperature to 25° C. The agar gel solution is held in a carrier, such as a bottle, or a test tube, and is tilted at about 30°-60° (for example, 45°) from the vertical orientation. The coagulation time is defined when the agar gel solution ceases to flow.
# The subject method utilizes a carrier (such as, for example, a test tube) to observe the effect of added cosmetic material to the coagulation of agar, so as to assess the toxicity of cosmetic materials. In this example, the present invention further evaluates the relevance of the cosmetic material toxicity based on the agar coagulation time with the cytotoxic IC50 testing.
# The agar was prepared to be used as the main application material (the plant gel material) for the present invention, and a sample was prepared to test the coagulation time of the agar (for 25 samples under study) as described above. For example, the concentrations of agar solutions are 1%, 2%, 3%, 4%, 5%, and 6% (w/w). In one of the examples, 3% agar solution was heated to 100° C. to be dissolved, and then 100 ml or 200 ml of agar solution was added to a bottle or a test tube to be mixed with various samples (100 ml, or 200 ml). The bottle, or the test tube, were tilted about 45° relative to a plane each 30 seconds, to observe whether there is coagulation, and the cooling from 100° C. to room temperature and corresponding coagulation times were recorded.
# [7] = in vitro; details: mouse; remark: listed apart in the source
# Protocol: as §1, §2
# [8] = test system: skin 3T3 cells; test: Cell viability analysis (MTT) cytotoxicity, skin 3T3 cells; details: MTT, incubation for 24 hours
# Protocol: as §1, §2
# [9] = test system: B16-F10 cells; test: Cell viability analysis (MTT) cytotoxicity, B16-F10 cells; details: MTT, incubation for 24 hours
# Protocol: as §1, §2
# [10] = sample concentration 10 % (w/w)
# [11] = sample concentration 20 % (w/w)
# [12] = sample concentration 30 % (w/w)
# [13] = sample concentration 15 % (w/w)
Agar coagulation time ([6]; sample concentration 1 % (w/w)) [min],Agar coagulation time ([6]; sample concentration 5 % (w/w)) [min],"Agar coagulation time [6, 10] [min]","Agar coagulation time [6, 11] [min]","Agar coagulation time [6, 12] [min]",Compound,IC50 at 24 h [4] [µg/mL],IC50 at 24 h [5] [µg/mL],also measured
–,–,–,–,–,O.O.O.O.O.O.O.O.O.[Na+].[Na+].[S-2] [sodium Sulfide-9-Hydrate],–,–,B16-F10 cytotoxicity IC50 [1]: 4187.1 µg/mL; Skin cell 3T3 Cytotoxicity IC50 [2]: >10000 µg/mL
–,–,–,–,–,CC(O)CCO (centres unmarked) [Butylene Glycol],–,–,B16-F10 cytotoxicity IC50 [1]: >10000 µg/mL; IC50 [3]: 7320 µg/mL
13.153 ± 0.056,13.186 ± 0.069,13.185 ± 0.066,13.172 ± 0.065,13.206 ± 0.087,CCCCCCCCCCCCCC(=O)OC(C)C [Isopropyl Myristate],> 10000,> 10000,–
13.193 ± 0.067,13.251 ± 0.077,13.296 ± 0.066,13.345 ± 0.088,13.354 ± 0.083,NCCO [Monoethanolamine],–,3650,–
18.406 ± 0.121,30.544 ± 0.139,91.139 ± 0.257,–,–,OO [Hydrogen Peroxide],63.7,48.9,Classification harmful / not harmful to skin by agar coagulation time compared with cell survival analysis [6]: harmful to skin; Agar coagulation time ([6]; sample concentration 17.5 % (w/w)): >1440 min
13.230 ± 0.084,13.197 ± 0.066,13.242 ± 0.087,13.208 ± 0.100,13.203 ± 0.090,COC(=O)c1ccc(O)cc1 [methyl p-hydroxybenzate],> 10000,4850,–
–,–,–,–,–,Nc1ccccc1O [2-Aminophenol],–,–,IC50 [7]: 39.3 µg/mL; IC50 [3]: 41.2 µg/mL
13.220 ± 0.081,13.228 ± 0.053,13.333 ± 0.087,13.265 ± 0.067,13.322 ± 0.091,OCC(O)CO [Glycerin],–,–,–
13.210 ± 0.087,13.221 ± 0.091,13.144 ± 0.068,13.219 ± 0.093,13.184 ± 0.063,O=C(O)c1ccccc1O [Salicylic Acid],1390,414,–
13.200 ± 0.080,13.209 ± 0.079,13.185 ± 0.072,13.167 ± 0.066,13.192 ± 0.071,CC(=O)Oc1c(C)c(C)c2c(c1C)CCC(C)(CCC[C@H](C)CCC[C@H](C)CCCC(C)C)O2 (some centres unmarked) [Tocopherol Acetate],> 10000,> 10000,–
32.821 ± 0.082,238.511 ± 0.101,>4320,>4320,>4320,Oc1cccc(O)c1 [Resorcinol],9860,4930,–
–,–,–,–,–,O.O.O=C([O-])CC(O)(CC(=O)[O-])C(=O)[O-].[Na+].[Na+].[Na+] [Trisodium Citrate Dihydrate],–,–,B16-F10 cytotoxicity IC50 [1]: 3335.4 µg/mL; Skin cell 3T3 Cytotoxicity IC50 [2]: >10000 µg/mL
13.260 ± 0.068,13.199 ± 0.073,13.276 ± 0.081,13.254 ± 0.077,13.305 ± 0.097,CC(C)CCCC(C)CCCC(C)CCCCC(C)CCCC(C)CCCC(C)C (centres unmarked) [Squalane],> 10000,5420,–
16.489 ± 0.475,20.455 ± 0.968,24.478 ± 1.280,43.671 ± 0.886,67.444 ± 1.687,Nc1cccc(O)c1 [3-Aminophenol],308,126,–
–,–,–,–,–,Cn1sc(Cl)cc1=O [Methylchloroisothiazolinone],–,–,B16-F10 cytotoxicity IC50 [1]: 58 µg/mL; Skin cell 3T3 Cytotoxicity IC50 [2]: 36.5 µg/mL
18.299 ± 0.078,23.378 ± 0.091,43.302 ± 0.099,253.306 ± 0.124,>1440,CC(O)C(=O)O (centres unmarked) [Lactic acid],30.5,66,Classification harmful / not harmful to skin by agar coagulation time compared with cell survival analysis [6]: harmful to skin
14.356 ± 0.097,20.422 ± 0.106,43.333 ± 0.112,–,–,Disodium Lauroamphodiacetate,–,–,"Skin cell 3T3 Cytotoxicity IC50 [8]: 55.6 µg/mL; B16-F10 cytotoxicity IC50 [9]: 72.8 µg/mL; Classification harmful / not harmful to skin by agar coagulation time compared with cell survival analysis [6]: harmful to skin; Agar coagulation time [6, 13]: 87.784 ± 0.176 min"

Compound,Agar coagulation time ([6]; sample concentration 1 % (w/w)) [min],Agar coagulation time ([6]; sample concentration 5 % (w/w)) [min],"Agar coagulation time [6, 10] [min]","Agar coagulation time [6, 11] [min]","Agar coagulation time [6, 12] [min]",IC50 at 24 h [4] [µg/mL],IC50 at 24 h [5] [µg/mL],also measured
CCCCOC(=O)c1ccc(O)cc1 [Butyl Paraben],13.186 ± 0.080,13.210 ± 0.079,13.182 ± 0.076,13.141 ± 0.050,13.238 ± 0.107,–,–,–
Cl.NCCCC[C@H](N)C(=O)O [Lysine hydrochloride],13.241 ± 0.080,13.198 ± 0.077,13.238 ± 0.100,13.254 ± 0.119,13.286 ± 0.147,–,–,–
"CCCCCCCCCCCCOS(=O)(=O)O.N [AmmoniumLauryl Sulfate, Ammonium Lauryl Sulfate]",16.444 ± 0.477,18.811 ± 0.987,28.372 ± 1.287,–,–,–,–,"Agar coagulation time with increase of sample concentration vs control group [6]: significantly longer; Agar coagulation time [6, 13]: 39.572 ± 1.077 min"
Nc1ccc(N)cc1 [p-Phenylenediamine],16.245 ± 0.468,22.189 ± 0.782,27.500 ± 1.073,39.489 ± 1.572,52.689 ± 1.982,–,–,Agar coagulation time with increase of sample concentration vs control group [6]: significantly longer
